From patent publication US20130109698A1, “Small Molecule Inhibitors of Functions of the HIV-1 Matrix Protein” (priority 2010, published 2013)

How the values were obtained:
[1] = test system: luciferase-reporter HIV-1 NL4-3 pseudotyped with HxBc2 envelope produced in 293T cells; assay: microbe, parasite or virus in culture
[2] = test system: HIV-1 IIIB; assay: Infection of Sup-T1 cells by HIV-1 IIIB, p24 ELISA; conditions: 50 μM, three days

| SMILES | IC50 [1] [µM] | HIV-1 replication (p24), in words [2] |
| --- | --- | --- |
| O=C(NCc1ccc(CN2CCCC2)cc1)c1ccc(C2SCCCS2)cc1 [CMPD-19, 4-(1,3-dithian-2-yl)-N-(4-(pyrrolidin-1-ylmethyl)benzyl)benzamide] | 26 | inhibited |
| COc1ccc(NC(C)=O)cc1NC(=O)Cn1cnc2scc(-c3ccc(C)s3)c2c1=O [CMPD-10, N-(5-acetamido-2-methoxyphenyl)-2-(5-(5-methylthiophen-2-yl)-4-oxothieno[2,3-d]pyrimidin-3(4H)-yl)acetamide] | 31 | inhibited HIV-1 replication, albeit to a lesser extent |
| O=C1NC(c2ccccc2)(c2ccccc2)C(=O)N1CN1CCC(c2nc3ccccc3o2)CC1 [CMPD-13, 3-((4-(benzo[d]oxazol-2-yl)piperidin-1-yl)methyl)-5,5-diphenylimidazolidine-2,4-dione] | – | no effect |
